Results as given in US10525187B2, “Apparatus for removing protein-bound toxins from blood plasma” (Fresenius Medical Care Deutschland GmbH, priority 2012, dated 2020).

Target: bovine serum albumin (Bos taurus, UniProt P02769)
Experiment: Dialysis module, HF field effect in the frequency range 1 to 170 MHz on separation of phenylacetic acid (Embodiment 2)
Assay type: in vitro ADME
Conditions: BSA 60 mg/ml, toxin 1 mmol/l
Method: A dialysis module was set up for this purpose in that conventional hemofiltration capillaries were cast as loops using silicone into a syringe receiving neck. An aqueous albumin solution was introduced into the respective module in the presence of the uremic toxins phenylacetic acid, p-hydroxyhippuric acid and indoxyl sulfate. This solution was filtered with the dialysis module using a syringe pump for 10 min. […] The electromagnetic field is incremented by means of a high-frequency voltage source over a period of 10 minutes from […] in steps of 1 MHz. […] The effect of the HF field on the bond between the proteins and the uremic toxins was able to be evaluated by a comparison of the uremic toxin concentration in the resulting filtrates.
The HF field was varied in subbands of 10 MHz in the frequency range 1-170 MHz and was compared with a control experiment without an HF field.
The quantitative determination of the phenylacetic acid was performed using HPLC.
The results of the experiments are collected in FIG. 9. […] The effect was particularly pronounced at 54.6% in the subband from 110 to 120 MHz.

Chain of bovine serum albumin (P02769 25-607): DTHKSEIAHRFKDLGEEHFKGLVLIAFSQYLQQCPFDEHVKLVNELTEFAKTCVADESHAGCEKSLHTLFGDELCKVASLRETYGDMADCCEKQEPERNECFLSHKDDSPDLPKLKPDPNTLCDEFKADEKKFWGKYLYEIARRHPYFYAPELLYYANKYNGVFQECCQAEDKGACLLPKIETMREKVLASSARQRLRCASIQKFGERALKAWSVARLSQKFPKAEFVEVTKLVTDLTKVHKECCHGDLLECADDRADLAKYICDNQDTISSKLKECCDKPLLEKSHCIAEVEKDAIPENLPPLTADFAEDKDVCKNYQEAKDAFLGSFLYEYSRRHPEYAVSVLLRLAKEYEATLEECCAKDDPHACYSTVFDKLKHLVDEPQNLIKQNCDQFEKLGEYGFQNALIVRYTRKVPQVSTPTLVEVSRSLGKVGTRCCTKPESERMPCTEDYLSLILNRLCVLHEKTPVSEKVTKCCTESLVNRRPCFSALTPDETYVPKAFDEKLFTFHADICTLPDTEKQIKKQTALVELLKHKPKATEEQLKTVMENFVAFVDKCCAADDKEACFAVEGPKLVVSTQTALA

With `O=C(O)Cc1ccccc1` [phenylacetic acid] the “increase of separation rate under the influence of the HF field” value (HF field 1-170 MHz in subbands of 10 MHz vs control without HF field) was “at least 45.3%” and the “increase of separation rate under the influence of the HF field” value (subband from 110 to 120 MHz vs control without HF field) was 54.6%.
